Molecules are shown by their SMILES. Where two headings read alike, the source gives them in different places.

Experiment [1] deals with castrated C57/B16J male mice. In words: Model of osteoporosis in male mice (trabecular BMD of tibia). The experiment is classed as in vivo. Conditions: Mus musculus, sc, 672 h, ORX mice, 30 mg/kg subcutaneously daily, day 1 to 28, ORX = 0%, SHAM = 100%, read-out: efficacy in protecting mineral bone density. The protocol: C57/B16J male mice aged 12 weeks and weighing approximately 20-25 g (Charles River, Les Oncins, FRANCE) were operated on as described above with regard to the rats. Castration mimicked the bone loss caused by androgen deficit. The aim of the study is to evaluate the capacity of the compounds to preserve and/or increase the bone mass. This is evaluated by measuring the bone mineral density (BMD). This model has previously been documented by Sims et al. 2003 J. Clin. Invest. 111(9):1319-27.
The animals were separated randomly into various groups and were kept in an environment at 22±2° C. with an alternating day/night cycle of 12 hours and ad libitum access to food and drink.
The tested compounds were administered from post-surgery day 1 and until day 28 preceding sacrifice (day 29). The mice were treated daily under the conditions defined below: • 1. SHAM control group: Vehicle (10/90 ethanol/corn oil mixture) administered subcutaneously. • 2. ORX control group: Vehicle (10/90 ethanol/corn oil mixture) administered subcutaneously. • 3. Treated ORX group: The tested compounds were administered individually subcutaneously in the vehicle described above, in a dose of 30 mg/kg.
During necropsy, the mice were first weighed then decapitated. The two hindlimbs were then carefully disarticulated at the femoral neck. The right hindlimb was frozen at −20° C. Densitometric quantitative analysis was performed on the trabecular portion of the tibia proximal metaphysis using a tomo densitometer (Stratec SA+, Hologic, Norland).
The average of the trabecular BMD of the mice in the ORX control group was defined as 0%. The average of the trabecular BMD of the mice in the SHAM control group was defined as 100%. The efficacy of each product as a percentage was calculated using the formula: (BMDtreated−BMDORX)/(BMDSHAM−BMDORX)×100
A subsequent ANOVA test was used for statistical analysis to identify the differences between groups.

Experiment [2] relates to castrated immature young rats. In words: Adapted model of Hershberger's test (levator ani and ventral prostate weight). Type of experiment: in vivo, Sprague Dawley rats. Conditions: Rattus norvegicus, po, 96 h. The protocol: The selective modulating activity of the androgen receptor was tested in a model of castrated immature young rats. This model, which is widely recognised for evaluating the anabolic effects of androgen compounds on the muscles and on the genitalia, has been described by Hershberger et al. 1953 Proc. Soc. Expt. Biol. Med. 83:175.
The method is based on the measurement of the well-known effects of androgens on the growth of the muscles and the accessory male sex organs in animals, and also in men. The consequences of castration appear in the form of a rapid involution and atrophy of the prostate and the seminal vesicles and of the anus-lifting muscle (levator ani). This effect may be completely compensated by an exogeneous administration of androgen, in particular of testosterone. The model is thus used to determine the capacity of the tested molecules to maintain the weight of the accessory sex and muscle organs in immature castrated rats, and therefore their androgenic efficacy.
Immature young Sprague Dawley rats (4 to 5 weeks old) weighing approximately 140-160 g (Charles River, Les Oncins, FRANCE) were distributed randomly in various groups and were kept in an environment at 22±2° C. with an alternating day/night cycle of 12 hours and ad libitum access to food and drink.
On day 0, that is, seven days before commencement of the first treatment, the rats were weighed individually then anaesthetised with an intraperitoneal dose of Ketamine/xylazine (85/15 mg/kg, approximately 2 ml/kg). Each animal was then placed on a sterile field and the abdomen and the scrotum were disinfected with Betadine and 70% alcohol. In the case of the orchidectomised control animals (ORX), the testicles were removed via an incision in the middle of the scrotum. A sterile suture was then made to ligature the supra-testicular portion of the tissue prior to surgical section of each testicle. The groups of animals to be treated by the tested compounds were operated on in an identical manner. In the case of the intact control animals (SHAM), the testicles were similarly extracted and reintroduced delicately to their original location. The site of surgical intervention was then sutured using sterile suture thread, and the site was disinfected again by application of Betadine. Each animal was then kept under a sterile pad until it awoke, before being returned to its cage. The animals were kept in an environment at 22±2° C. with an alternating day/night cycle of 12 hours and ad libitum access to food and drink. The animals were treated with the molecules to be tested from post-surgery day 7 and until day 10 preceding sacrifice (day 11).
The rats were split into groups and treated daily from day 7 to day 10 under the conditions defined below: • 1. SHAM control group: Vehicle (0.5% aqueous methyl cellulose) administered per os. • 2. ORX control group: Vehicle (0.5% aqueous methyl cellulose) administered per os. • 3. Treated ORX group: The tested compounds were administered individually per os in suspension in the vehicle described above, in a dose of 30 mg/kg.
After treatment for 4 successive days, the animals were decapitated using a guillotine. The levator ani and the ventral prostate were removed and weighed individually. For comparing inter-experimental data, the weight of each organ was standardised and expressed in milligrammes per 100 g of the weight of the animal (W). For each organ, the average of the standardised weights of the ORX control group was fixed by definition at 0% and the average of the standardised weights of the SHAM control group was fixed by definition at 100%. The efficacy of each product was expressed as a percentage and calculated using the following formula: (Wtreated−WORX)/(WSHAM−WORX)×100 A subsequent ANOVA test was used for statistical analysis to identify the differences between groups.

The mark [3] stands for this setting: read-out: anabolic protection efficacy with regard to levator ani.
[4] abbreviates: read-out: androgenic efficacy with regard to the prostate.
The mark [5] stands for this setting: ORX rats, 30 mg/kg per os, 4 successive days, ORX = 0%, SHAM = 100%, read-out: anabolic protection efficacy with regard to levator ani.
Setting [6] is: ORX rats, 30 mg/kg per os, 4 successive days, ventral prostate, ORX = 0%, SHAM = 100%, read-out: androgenic efficacy with regard to the prostate.

For the compound `C#CCN1C(=O)N(c2ccc(C#N)c(C(F)(F)F)c2)C(=O)C1c1ccc(O)cc1` (stereo not drawn) [Example 4, 4-[2,5-dioxo-4-(4-hydroxyphenyl)-3-(2-propynyl)imidazolidin-1-yl]-2-trifluoromethylbenzonitrile], the inhibition in vivo at 30 mg/kg fell in the range of 40 to 130% in experiment [1], 50 to 140% in experiment [2] (setting [3]) and 5 to 70% in experiment [2] (setting [4]).

Take `C=CCN1C(=O)N(c2ccc(Cl)c(Cl)c2)C(=O)C1c1ccc(O)cc1` (stereo not drawn) [Example 3, 1-(3,4-dichlorophenyl)-4-(4-hydroxyphenyl)-3-(2-propenyl)imidazolidine-2,5-dione]: the figures for the inhibition in vivo at 30 mg/kg in experiment [1], in experiment [2] (setting [5]) and in experiment [2] (setting [6]) were 40 to 130%, 50 to 140% and 5 to 70%, respectively.

For the compound `CC#CCN1C(=O)N(c2ccc(C#N)c(C(F)(F)F)c2)C(=O)C1(C)c1ccc(O)cc1` (stereo not drawn) [Example 220, 4-[3-(2-butynyl)-4-(4-hydroxyphenyl)-4-methyl-2,5-dioxoimidazolidin-1-yl]-2-trifluoromethylbenzonitrile], the inhibition in vivo at 30 mg/kg in experiment [1] fell in the range of 40 to 130%; in experiment [2] (setting [3]) it was 50 to 140%; in experiment [2] (setting [4]), 5 to 70%.

On to `CN1C(=O)N(c2ccc(C#N)c(C(F)(F)F)c2)C(=O)[C@@]1(C)c1ccc(O)cc1` [Example 155, (R)-4-[3,4-dimethyl-2,5-dioxo-4-(4-hydroxyphenyl)imidazolidin-1-yl]-2-trifluoromethylbenzonitrile], for which the inhibition in vivo at 30 mg/kg is 40 to 130% in experiment [1], 50 to 140% in experiment [2] (setting [3]) and 5 to 70% in experiment [2] (setting [4]).

Take `CN1C(=O)N(c2ccc(C#N)c(C(F)(F)F)c2)C(=O)C1(C)c1ccc(O)cc1` (stereo not drawn) [Example 5, 4-[3,4-dimethyl-2,5-dioxo-4-(4-hydroxyphenyl)imidazolidin-1-yl]-2-trifluoromethylbenzonitrile]: the inhibition in vivo at 30 mg/kg is 40 to 130% in experiment [1], 50 to 140% in experiment [2] (setting [3]) and 5 to 70% in experiment [2] (setting [4]).

Take `C#CCN1C(=O)N(c2ccc(C#N)c(C(F)(F)F)c2)C(=O)C1(C)c1ccc(O)cc1` (stereo not drawn) [Example 6, 4-[2,5-dioxo-4-(4-hydroxyphenyl)-4-methyl-3-(2-propynyl)imidazolidin-1-yl]-2-trifluoromethylbenzonitrile]: the inhibition in vivo at 30 mg/kg in experiment [1] is 40 to 130%; in experiment [2] (setting [3]) it was 50 to 140%; in experiment [2] (setting [4]), 5 to 70%.

Turning to `CN1C(=O)N(c2ccc(Cl)c(Cl)c2)C(=O)C1c1ccc(O)cc1` (stereo not drawn) [Example 1, 1-(3,4-dichlorophenyl)-4-(4-hydroxyphenyl)-3-methylimidazolidine-2,5-dione], the inhibition in vivo at 30 mg/kg in experiment [1] lay in the range of 40 to 130%; in experiment [2] (setting [5]), 50 to 140%; in experiment [2] (setting [6]), 5 to 70%.

The record behind these values is patent US8168667B2 (Galapagos NV, priority 2006, dated 2012).
